Measurements taken from patent US20070249822A1, “Photolabile Coumarinylmethyl Esters of Cyclic Nucleotides, Methods for their Preparation and Their Use” (Forschungsverbund Berlin E.V., priority 2000, published 2007).

Key:
[1] = cited from earlier work
[2] = Solubility of coumarinylmethyl-caged cyclic nucleotides in acetonitrile/HEPES buffer (saturation concentration by HPLC); assay type: physicochemical; settings: acetonitrile/HEPES buffer (5:95), pH 7.2, room temperature
Protocol: Comparison of the Solubilities of Miscellaneous coumarinyl-methyl-caged Cyclic Nucleotides in Acetonitrile/HEPES Buffer (5:95) at pH 7.2 and Room Temperature
A suspension of the compounds in the specified solvent was treated for 5 min in an ultrasonic bath, undissolved components were removed by centrifugation, and the concentration in the solution was determined using HPLC. The following saturation concentrations were determined: […]

[3] = tested on: olfactory cGMP-dependent cation channel; test: Activation of the olfactory cGMP-dependent cation channel upon photolysis of caged cGMP; assay type: cell-based; settings: for activation of the olfactory cGMP-dependent cation channel upon photolysis: HEPES buffer
Excerpt: The new photolabile cGMP and cAMP esters can be used successfully in the investigation of cyclic nucleotide-controlled processes.

[4] = cited from earlier work; remark: listed apart in the source
[5] = tested on: cyclic nucleotide-dependent ion channel CNCα3 (from olfactory cells); test: Whole cell measurements on HEK293 cells: activation of CNCα3 by photolytic liberation of cAMP; assay type: cell-based; settings: axial form, 500 μM intracellular solution, UV flashes 10 to 200 ms; versus 200 μM DMN-caged cGMP on CNCα2, equal exposures
Excerpt: Activation of Cyclic Nucleotide-Dependent Ion Channels by Photolytic Liberation of Cyclic Nucleotides from the Corresponding Caged Compounds
Using whole cell measurements on HEK293 cells, the activation of the cyclic nucleotide-dependent ion channel CNCα3 (from olfactory cells) by photolytic liberation of cAMP from the axial form of the compound of Example 1 ([…]) and of the cyclic nucleotide-dependent ion channel CNCα2 (from rod photoreceptors) by photolytic liberation of cGMP from the axial form of 4,5-dimethoxy-2-nitrobenzyl ester of cGMP [DMN-caged cGMP, produced according to J. M. Nerbonne, S. Richard, J. Nargeot, H. A. Lester, Nature 310, 74 (1984)] was investigated comparatively by electrophysiological means.

Molecule: COc1ccc2c(COP3(=O)OCC4OC(n5cnc6c(N)ncnc65)C(O)C4O3)cc(=O)oc2c1 (single isomer, unassigned) [equatorial isomer of the (7-methoxycoumarin-4-yl)methyl ester of cAMP, (7-methoxycoumarin-4-yl)methyl ester of cAMP]
- hydrolytic halflife ([1]; Ringer's solution): 60 h

Molecule: (7-Methoxycoumarin-4-yl)methyl-caged 8-Br-cGMP [(7-Methoxycoumarin-4-yl)methyl-caged 8-Br-cGMP (equatorial)]
- saturation concentration [2]: 20 µM

Molecule: (7-Methoxycoumarin-4-yl)methyl-caged cAMP
- saturation concentration [2]: 15 µM

Molecule: Nc1nc2c(ncn2C2OC3COP(=O)(OCc4cc(=O)oc5cc(OCC(=O)O)c(OCC(=O)O)cc45)OC3C2O)c(=O)[nH]1 (stereo not drawn) [Compound 10, [6,7-bis(carboxymethoxy)coumarin-4-yl]methyl ester of cGMP]
- amount of incident light for comparable activation of the channel ([3]; 333 nm, compared to the 4,5-dimethoxy-2-nitro-benzyl ester of cGMP): substantially smaller amounts of incident light

Molecule: COc1ccc2c(COP3(=O)OCC4OC(n5cnc6c(=O)[nH]c(N)nc65)C(O)C4O3)cc(=O)oc2c1 (stereo not drawn) [7-methoxycoumarinylmethyl-caged cGMP]
- activation of the olfactory cGMP-dependent cation channel upon photolysis [3]: not more than partially

Molecule: Nc1ncnc2c1ncn2C1OC2COP(=O)(OCc3ccc4ccccc4c3)OC2C1O (stereo not drawn) [(naphth-2-yl)methyl ester of cAMP]
- solubility in aqueous buffer solutions [4]: insufficient solubility

Molecule: (7-Methoxycoumarin-4-yl)methyl-caged cGMP [(7-Methoxycoumarin-4-yl)methyl-caged cGMP (axial)]
- saturation concentration [2]: 15 µM

Molecule: Nc1ncnc2c1ncn2C1OC2COP(=O)(OCc3cc(=O)oc4cc(OCC(=O)O)ccc34)OC2C1O (stereo not drawn) [[7-(Carboxymethoxy)coumarin-4-yl]methyl-caged cAMP (axial)]
- saturation concentration [2]: 900 µM

Molecule: Nc1nc2c(ncn2C2OC3COP(=O)(OCc4cc(=O)oc5cc(OCC(=O)O)ccc45)OC3C2O)c(=O)[nH]1 (stereo not drawn) [Example 3]
- activation of the olfactory cGMP-dependent cation channel upon photolysis [3]: complete activation

Molecule: (7-Methoxycoumarin-4-yl)methyl-caged 8-Br-cGMP [(7-Methoxycoumarin-4-yl)methyl-caged 8-Br-cGMP (axial)]
- saturation concentration [2]: 40 µM

Molecule: Nc1ncnc2c1ncn2C1OC2COP(=O)(OCc3cc(=O)oc4cc(OCC(=O)O)c(OCC(=O)O)cc34)OC2C1O (stereo not drawn) [Example 1, [6,7-Bis(carboxymethoxy)coumarin-4-yl]methyl ester of cAMP]
- concentration of liberated cyclic nucleotide [5]: substantially higher concentrations of liberated cyclic nucleotide

Molecule: Nc1ncnc2c1ncn2C1OC2COP(=O)(OC(C(=O)c3ccccc3)c3ccccc3)OC2C1O (stereo not drawn) [desyl ester of cAMP]
- sensitivity to solvolysis ([1]; aqueous buffer solutions): sensitive to solvolysis

Molecule: Nc1nc2c(ncn2C2OC3COP(=O)(OCc4cc(=O)oc5cc(OCC(=O)O)c(OCC(=O)O)cc45)OC3C2O)c(=O)[nH]1 (stereo not drawn) [[6,7-Bis(carboxymethoxy)coumarin-4-yl]methyl-caged cGMP (equ]
- saturation concentration [2]: > 100 µM

Molecule: (7-Methoxycoumarin-4-yl)methyl-caged cGMP [(7-Methoxycoumarin-4-yl)methyl-caged cGMP (equatorial)]
- saturation concentration [2]: 25 µM

Molecule: Nc1ncnc2c1ncn2C1OC2COP(=O)(OCc3ccc4c(c3)C(=O)c3ccccc3C4=O)OC2C1O (stereo not drawn) [(anthraquinon-2-yl)methyl ester of cAMP]
- solubility in aqueous buffer solutions [4]: insufficient solubility
